Residues, ends and D or L forms follow the SMILES beside them. *: point of attachment. Cbz = O=C(OCc1ccccc1)*; OtBu = CC(C)(C)O*
Target: T1, human Nav1.7 (Homo sapiens, UniProt Q15858)
T1 construct: expressed in transfected cells; host or cells: HEK293 stably expressing human Nav1.7
Assay: Whole-cell patch-clamp, HEK293 cells stably expressing human Nav1.7 with GFP or FGF13-GFP
Format: cell-based
Design: Nav1.7 repriming time course, Mean / Figure 4I, Mean versus Time (ms): unit not given here
Conditions: for use dependency, normalized INa amplitude, Mean: Fig 1I; for long-term inactivation, Mean: Fig 1J; for Nav1.7 repriming time course, Mean: Fig 1K; for Nav1.7 repriming time course, Mean / Time constant of repriming, Mean: PW164; for Time constant of repriming, Mean: Fig 1L; for Activation / Long-term inactivation, 2nd Pulse / Long-term inactivation, 3rd Pulse / Long-term inactivation, 4th Pulse / Peak Density / Steady state inactivation / Tau (τ): HEK293 Nav1.7
Experimental: Whole-cell patch clamp electrophysiology
HEK293-Nav1.7 cells, HEK293 stably expressing human Nav1.6 (HEK-Nav1.6), HEK293 stably expressing human Nav1.5 (HEK-Nav1.5), human hIPSC-derived sensory neurons (RealDRGTM from Anatomic Incorporated 1020F1-1M) and donor-derived DRG neurons were plated at low density on glass coverslips and processed for whole-cell patch clamp electrophysiology in voltage-clamp and/or current clamp mode. Whole-cell patch electrophysiological experiments were conducted following previously published studies (26). Current densities were obtained by dividing INa amplitude by membrane capacitance. Current –voltage relationships were generated by plotting current density as a function of the […]. Conductance (G Na) was calculated by the […]
where INa is the current amplitude at voltage Vm, and Erev is the Na+ reversal potential.
Activation curves were derived by plotting normalized GNa as a function of test potential and fitted using […]
Where GNa,Max is the maximum conductance, Va is the membrane potential of half-maximal activation, Em is the membrane voltage and k is the slope factor. For steady -state inactivation, normalized current amplitude (INa/INa,Max) at the test potential was plotted as a function of prepulse potential (Vm) and fitted using the […]
Where Vh is the potential of half-maximal inactivation, E m is the membrane voltage, and k is the slope factor.
Transient INa inactivation decay was estimated with the standard exponential equation. Inactivation time constant (tau, τ) was fitted with the following equation: […]
where I(t) is the amplitude of the current at time t and Iss is the steady-state current during a single voltage-step.
The goodness of fitting was determined by correlation coefficient (R), and the cutoff of R was set at 0.85. To observe effects on long-term inactivation (LTI), a four-step protocol was employed during which cells were subjected to four 0 mV, 20 ms depolarization pulses separated by −90 mV, 40 ms recovery intervals. To control for various cell sizes, the current densities were calculated by dividing INa peak current amplitude/membrane capacitance (Cm). To represent the fraction of channels entering into LTI, the peak INa observed during depolarization cycles 2-4 was normalized to the peak INa observed during depolarization cycle 1 (INa/INa,Cycle 1) and plotted as a function of the depolarization cycle.
The cumulative (frequency-dependent) use-dependency was determined by applying 20 pulses with a depolarization to −10 mV (50 ms duration) and 50 ms recovery intervals with a train of 20 pulses at 10 Hz from a holding potential at -70 mV. The current pulses were normalized to the first reco rded pulse and the currents at the 2nd to 20th pulses were compared. The same train was used to record use-dependency at various frequencies […]
The rate of recovery from inactivation was recorded at -80 mV with a standard repriming voltage protocol.
The cells were prepulsed to -20 mV for 20 ms to inactivate all currents, then driven back to the recovery potential (Vrec) for increasing recovery durations before the test pulse to 0 mV. The maximum pulse rate was 0.5 Hz. The […]
follows previous publications (16). The time constants were estimated from single exponential decay to time courses measured at recovery potentials ranging from -140 to -60 mV with the protocol as mentioned above.
Electrophysiological Recordings
HEK293 cells: Electrophysiological recordings in HEK293 stably expressing Nav1.7 (HEK-Nav1.7), Nav1.5 (HEK-Nav1.5) or Nav1.6 (HEK-Nav1.6) were performed at room temperature using a MultiClamp 700B or an Axopatch 200B amplifier (Molecular Devices) after incubating coverslips for 60 minutes either with 0.1% DMSO or 50 μM PW164 or ZL192 in the extracellular solution. The composition of recording solutions consisted of the […]
following salts: extracellular (mM): 140 NaCl, 3 KCl, 1 MgCl2, 1 CaCl2, 10 HEPES, 10 glucose, pH 7.3; […]
intracellular (mM): 130 CH3O3 SCs, 1 EGTA, 10 NaCl, 10 HEPES, pH 7.3. […]

T1 sequence (Q92913 1-192 partner limits assumed): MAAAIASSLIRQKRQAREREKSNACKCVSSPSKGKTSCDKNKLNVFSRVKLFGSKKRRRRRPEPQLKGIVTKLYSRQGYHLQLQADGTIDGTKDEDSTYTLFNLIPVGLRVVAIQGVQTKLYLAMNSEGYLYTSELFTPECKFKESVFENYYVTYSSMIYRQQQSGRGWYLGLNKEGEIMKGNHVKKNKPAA
T1 sequence (Q15858 1-1977 isoform Q15858-3): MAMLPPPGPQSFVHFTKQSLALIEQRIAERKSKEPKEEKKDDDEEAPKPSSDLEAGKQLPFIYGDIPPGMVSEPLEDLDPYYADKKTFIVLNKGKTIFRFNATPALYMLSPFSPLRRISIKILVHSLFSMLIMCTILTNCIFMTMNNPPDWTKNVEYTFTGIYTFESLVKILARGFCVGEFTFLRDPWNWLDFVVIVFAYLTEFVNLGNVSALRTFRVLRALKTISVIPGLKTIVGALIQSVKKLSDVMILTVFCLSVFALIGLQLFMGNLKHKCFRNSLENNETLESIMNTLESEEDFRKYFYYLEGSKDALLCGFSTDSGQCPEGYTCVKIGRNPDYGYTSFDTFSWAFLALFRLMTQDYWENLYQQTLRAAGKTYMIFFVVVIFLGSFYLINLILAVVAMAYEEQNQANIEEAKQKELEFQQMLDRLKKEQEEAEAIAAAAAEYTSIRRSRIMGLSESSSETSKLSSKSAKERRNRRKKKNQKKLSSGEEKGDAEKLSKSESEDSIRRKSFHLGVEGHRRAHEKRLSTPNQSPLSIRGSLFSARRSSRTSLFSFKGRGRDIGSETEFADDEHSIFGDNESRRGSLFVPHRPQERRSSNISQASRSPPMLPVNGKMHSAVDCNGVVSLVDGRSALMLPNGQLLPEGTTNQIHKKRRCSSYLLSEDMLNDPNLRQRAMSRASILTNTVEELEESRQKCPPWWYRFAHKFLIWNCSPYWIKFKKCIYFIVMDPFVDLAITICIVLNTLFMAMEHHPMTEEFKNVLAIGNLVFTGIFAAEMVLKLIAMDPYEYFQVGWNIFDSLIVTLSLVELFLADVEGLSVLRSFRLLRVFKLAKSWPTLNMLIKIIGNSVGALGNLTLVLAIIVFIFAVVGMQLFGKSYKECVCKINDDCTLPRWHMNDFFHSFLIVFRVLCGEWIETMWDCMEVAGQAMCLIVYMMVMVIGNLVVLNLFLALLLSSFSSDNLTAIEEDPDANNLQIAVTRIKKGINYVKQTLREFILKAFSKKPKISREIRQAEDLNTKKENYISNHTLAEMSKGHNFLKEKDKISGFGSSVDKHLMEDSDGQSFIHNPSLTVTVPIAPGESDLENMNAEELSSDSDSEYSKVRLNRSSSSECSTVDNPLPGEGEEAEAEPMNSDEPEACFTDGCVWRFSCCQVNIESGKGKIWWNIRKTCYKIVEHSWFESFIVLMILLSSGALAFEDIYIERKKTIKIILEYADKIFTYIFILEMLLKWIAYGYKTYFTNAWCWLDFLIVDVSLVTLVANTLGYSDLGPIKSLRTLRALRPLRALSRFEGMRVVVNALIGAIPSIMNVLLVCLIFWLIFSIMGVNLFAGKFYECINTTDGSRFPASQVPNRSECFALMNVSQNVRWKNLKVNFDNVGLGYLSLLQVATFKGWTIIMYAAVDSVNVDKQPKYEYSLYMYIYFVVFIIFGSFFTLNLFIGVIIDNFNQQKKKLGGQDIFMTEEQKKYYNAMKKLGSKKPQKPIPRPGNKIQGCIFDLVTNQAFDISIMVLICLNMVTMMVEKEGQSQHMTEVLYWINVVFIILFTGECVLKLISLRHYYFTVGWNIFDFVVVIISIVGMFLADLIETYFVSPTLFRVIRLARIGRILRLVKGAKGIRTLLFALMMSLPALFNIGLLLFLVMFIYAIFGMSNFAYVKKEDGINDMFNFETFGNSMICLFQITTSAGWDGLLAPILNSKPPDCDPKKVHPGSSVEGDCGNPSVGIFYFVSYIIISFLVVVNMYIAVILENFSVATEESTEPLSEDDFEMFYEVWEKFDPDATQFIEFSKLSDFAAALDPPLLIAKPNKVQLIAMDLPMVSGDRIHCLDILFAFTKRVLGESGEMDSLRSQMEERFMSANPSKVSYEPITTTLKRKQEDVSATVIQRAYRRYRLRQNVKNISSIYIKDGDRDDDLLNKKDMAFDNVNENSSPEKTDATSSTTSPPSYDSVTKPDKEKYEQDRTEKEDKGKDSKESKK

## COC(=O)[C@@H](NC(=O)[C@H](CCC(=O)OC(C)(C)C)NC(=O)[C@H](CC(C)C)NC(=O)[C@@H]1CCCN1C(=O)OCc1ccccc1)C(C)C [PW164] (Cbz-PLE(OtBu)V-OMe)
FGF13-GFP + PW164, Pulse 1
  use dependency, normalized INa amplitude, Mean: 1
  long-term inactivation, Mean: 100
FGF13-GFP + PW164, Pulse 3
  use dependency, normalized INa amplitude, Mean: 0.7166
  long-term inactivation, Mean: 60.3266
FGF13-GFP + PW164, Pulse 6
  use dependency, normalized INa amplitude, Mean: 0.6629
FGF13-GFP + PW164, Pulse 10
  use dependency, normalized INa amplitude, Mean: 0.6585
FGF13-GFP + PW164, Pulse 15
  use dependency, normalized INa amplitude, Mean: 0.6477
FGF13-GFP + PW164, Pulse 20
  use dependency, normalized INa amplitude, Mean: 0.6421
GFP + PW164, Pulse 1
  use dependency, normalized INa amplitude, Mean: 1
  long-term inactivation, Mean: 100
GFP + PW164, Pulse 3
  use dependency, normalized INa amplitude, Mean: 0.9017
  long-term inactivation, Mean: 62.3462
GFP + PW164, Pulse 6
  use dependency, normalized INa amplitude, Mean: 0.9079
GFP + PW164, Pulse 10
  use dependency, normalized INa amplitude, Mean: 0.9071
GFP + PW164, Pulse 15
  use dependency, normalized INa amplitude, Mean: 0.9039
GFP + PW164, Pulse 20
  use dependency, normalized INa amplitude, Mean: 0.8633
FGF13-GFP + PW164, Pulse 2
  long-term inactivation, Mean: 69.7175
FGF13-GFP + PW164, Pulse 4
  long-term inactivation, Mean: 59.3421
GFP + PW164, Pulse 2
  long-term inactivation, Mean: 67.9412
GFP + PW164, Pulse 4
  long-term inactivation, Mean: 60.9288
Nav1.7 + FGF13-GFP, Time (ms) 2
  Nav1.7 repriming time course, Mean: -1.745
Nav1.7 + FGF13-GFP, Time (ms) 5
  Nav1.7 repriming time course, Mean: -3.217
Nav1.7 + FGF13-GFP, Time (ms) 9
  Nav1.7 repriming time course, Mean: -6.791
Nav1.7 + FGF13-GFP, Time (ms) 17
  Nav1.7 repriming time course, Mean: -10.2331
Nav1.7 + FGF13-GFP, Time (ms) 33
  Nav1.7 repriming time course, Mean: -13.6908
Nav1.7 + FGF13-GFP, Time (ms) 65
  Nav1.7 repriming time course, Mean: -18.7676
Nav1.7 + FGF13-GFP, Time (ms) 129
  Nav1.7 repriming time course, Mean: -22.4288
Nav1.7 + FGF13-GFP, Time (ms) 257
  Nav1.7 repriming time course, Mean: -26.5719
Nav1.7 + FGF13-GFP, Time (ms) 513
  Nav1.7 repriming time course, Mean: -28.3171
Nav1.7 + FGF13-GFP, Time (ms) 1025
  Nav1.7 repriming time course, Mean: -29.4614
Nav1.7 + FGF13-GFP, Time (ms) 2000
  Nav1.7 repriming time course, Mean: -30.5045
Nav1.7 + GFP, Time (ms) 2
  Nav1.7 repriming time course, Mean: -0.8155
Nav1.7 + GFP, Time (ms) 5
  Nav1.7 repriming time course, Mean: -1.631
Nav1.7 + GFP, Time (ms) 9
  Nav1.7 repriming time course, Mean: -4.0928
Nav1.7 + GFP, Time (ms) 17
  Nav1.7 repriming time course, Mean: -9.754
Nav1.7 + GFP, Time (ms) 33
  Nav1.7 repriming time course, Mean: -14.6809
Nav1.7 + GFP, Time (ms) 65
  Nav1.7 repriming time course, Mean: -21.498
Nav1.7 + GFP, Time (ms) 129
  Nav1.7 repriming time course, Mean: -26.6853
Nav1.7 + GFP, Time (ms) 257
  Nav1.7 repriming time course, Mean: -32.6576
Nav1.7 + GFP, Time (ms) 513
  Nav1.7 repriming time course, Mean: -33.7798
Nav1.7 + GFP, Time (ms) 1025
  Nav1.7 repriming time course, Mean: -35.5926
Nav1.7 + GFP, Time (ms) 2000
  Nav1.7 repriming time course, Mean: -36.9364
Nav1.7 + FGF13-GFP, recovery potential -60
  Time constant of repriming, Mean: 51.44 ms
Nav1.7 + FGF13-GFP, recovery potential -70
  Time constant of repriming, Mean: 60.77 ms
Nav1.7 + FGF13-GFP, recovery potential -80
  Time constant of repriming, Mean: 68.88 ms
Nav1.7 + FGF13-GFP, recovery potential -90
  Time constant of repriming, Mean: 64.58 ms
Nav1.7 + FGF13-GFP, recovery potential -100
  Time constant of repriming, Mean: 42.57 ms
Nav1.7 + FGF13-GFP, recovery potential -120
  Time constant of repriming, Mean: 33.57 ms
Nav1.7 + FGF13-GFP, recovery potential -140
  Time constant of repriming, Mean: 16.96 ms
Nav1.7 + GFP, recovery potential -60
  Time constant of repriming, Mean: 57.89 ms
Nav1.7 + GFP, recovery potential -70
  Time constant of repriming, Mean: 65.42 ms
Nav1.7 + GFP, recovery potential -80
  Time constant of repriming, Mean: 71.67 ms
Nav1.7 + GFP, recovery potential -90
  Time constant of repriming, Mean: 61.78 ms
Nav1.7 + GFP, recovery potential -100
  Time constant of repriming, Mean: 47.69 ms
Nav1.7 + GFP, recovery potential -120
  Time constant of repriming, Mean: 34.63 ms
Nav1.7 + GFP, recovery potential -140
  Time constant of repriming, Mean: 16.6 ms
FGF13-GFP + PW164 50 μM
  Activation: −19.7 ± 0.9 mV
  Long-term inactivation, 2nd Pulse: −69.72 ± 5.21 % maximal Na+ current
  Long-term inactivation, 3rd Pulse: −60.33 ± 5.60 % maximal Na+ current
  Long-term inactivation, 4th Pulse: −59.34 ± 4.68 % maximal Na+ current
  Peak Density: −26.7 ± 3.6 pA/pF
  Steady state inactivation: −64.7 ± 2.1 mV
  Tau (τ): 0.80 ± 0.03 ms
FGF13A GFP (FGF13-1a) + PW164
  Activation: −26.91 ± 1.25 mV
  Peak Density: −109.1 ± 11.7 pA/pF
  Steady state inactivation: −63.11 ± 2.14 mV
  Tau (τ): 1.41 ± 0.06 ms
FGF13A-GFP (FGF13-1a) + PW164
  Long-term inactivation, 2nd Pulse: −47.28 ± 4.68 % maximal Na+ current
  Long-term inactivation, 3rd Pulse: −35.27 ± 3.04 % maximal Na+ current
  Long-term inactivation, 4th Pulse: −29.22 ± 4.16 % maximal Na+ current
GFP + PW164 50 μM
  Activation: −26.1 ± 0.4 mV
  Long-term inactivation, 2nd Pulse: −67.94 ± 3.77 % maximal Na+ current
  Long-term inactivation, 3rd Pulse: −62.35 ± 5.35 % maximal Na+ current
  Long-term inactivation, 4th Pulse: −60.93 ± 3.90 % maximal Na+ current
  Peak Density: −69.2 ± 7.5 pA/pF
  Steady state inactivation: −83.5 ± 1.7 mV
  Tau (τ): 1.48 ± 0.25 ms
HEK-Nav1.7 coexpressing FGF13-GFP, Fig 1F, read-out: IC50, reversal of FGF13-induced increase in INa density
  IC50: 6.74 ± 0.5 µM
Nav1.7 + FGF13-GFP, at -60, N 5
  Time constant (ms), Mean (Figure 4J): 36.71 ms
Nav1.7 + FGF13-GFP, at -70, N 5
  Time constant (ms), Mean (Figure 4J): 42.79 ms
Nav1.7 + FGF13-GFP, at -80, N 5
  Time constant (ms), Mean (Figure 4J): 44.71 ms
Nav1.7 + FGF13-GFP, at -90, N 5
  Time constant (ms), Mean (Figure 4J): 37.77 ms
Nav1.7 + FGF13-GFP, at -100, N 5
  Time constant (ms), Mean (Figure 4J): 28.49 ms
Nav1.7 + FGF13-GFP, at -120, N 5
  Time constant (ms), Mean (Figure 4J): 23.55 ms
Nav1.7 + FGF13-GFP, at -140, N 5
  Time constant (ms), Mean (Figure 4J): 14.96 ms
Nav1.7 + GFP, at -60, N 6
  Time constant (ms), Mean (Figure 4J): 50.23 ms
Nav1.7 + GFP, at -70, N 6
  Time constant (ms), Mean (Figure 4J): 52.23 ms
Nav1.7 + GFP, at -80, N 6
  Time constant (ms), Mean (Figure 4J): 56.52 ms
Nav1.7 + GFP, at -90, N 6
  Time constant (ms), Mean (Figure 4J): 45.93 ms
Nav1.7 + GFP, at -100, N 6
  Time constant (ms), Mean (Figure 4J): 35.06 ms
Nav1.7 + GFP, at -120, N 6
  Time constant (ms), Mean (Figure 4J): 27.11 ms
Nav1.7 + GFP, at -140, N 6
  Time constant (ms), Mean (Figure 4J): 15.6 ms
Nav1.7 cells coexpressing FGF13-1a-GFP (FGF13S)
  activity on Nav1.7 currents: inactive

Source: article PMC12259270, “Sensory neuron–expressed FGF13 controls nociceptive signaling in diabetic neuropathy models” (The Journal of Clinical Investigation, 2025)
